One experiment concerns elongin C. Put plainly: Immunoprecipitation with anti-elongin C, immunoblot anti-FITC. It counts as binding, rat. Particulars: FITC-conjugated peptides, Figure 3C, difference p < 0.001. How it is done: (§1) For neuronal differentiation, cells were dissociated into a single-cell suspension by use of a Pasteur pipette and re-suspended into a concentration of 50,000 cells/mL in DMEM/F12 without serum, neurotrophic factors or growth factors. Then, the cells were cultured on poly-L-lysine-coated dishes or cover glasses, and the synthesized peptides at concentrations from 1 to 5 μM were added to the culture medium and delivered into the cells. Three days or more later, the cells were used for morphological, immunocytochemical, immunohistochemical, electrophysiological and immunoprecipitation studies, as well as for Western blot analysis.
Cultured cells (1 × 10^6) were washed with ice-cold PBS and lysed in RIPA lysis buffer (Upstate, Charlottesville, VA, USA). The total protein was extracted from the cells, and the total protein concentration of each lysate was adjusted to 1 mg/mL. The lysates were immunoprecipitated with anti- elongin C antibody (Santa Cruz, San Diego, CA, USA) diluted at 1:500 by using μMACS Protein A Microbeads (Miltenyi Biotec, Bergisch Gladbach, Germany). The immunoprecipitates were analyzed by SDS/gradient polyacrylamide gel and Western blotting with anti-FITC antibody (Santa Cruz, San Diego, CA, USA) diluted 1:500. Immunolabeled bands were detected by using enhanced chemiluminescence reagents (Amersham Biosciences Corp., Piscataway, NJ, USA). Images were analyzed with LAS-1000 (Fujifilm), and the density of the bands was determined by using Image Gauge software (Fujifilm).
Background: In western blotting, separated proteins are transferred to a membrane and probed.

Experiment [1] concerns skin-derived precursors (SKPs). Put plainly: Neurite outgrowth / morphological evaluation of neuronal differentiation. Format: cell-based, rat (neonate Wistar). To be noted: peptides at 1 to 5 μM; for Neurite Outgrowth Activity: Figure 2A, rates of cells having neurites, VHL157–168 vs VHL(157–171) p < 0.005. How it is done:
(§2) Rodent skin-derived precursor cells (SKPs), which can differentiate to neurons, were used. SKPs were previously isolated from the back dermis of neonate Wistar rats by the authors. These cells were cultured in growth medium composed of DMEM/F12 (1:1; Gibco, Grand Island, NY, USA) containing 2% B27 supplement (Gibco), 20 ng/mL epidermal growth factor (EGF; Upstate Biotechnology, Lake Placid, NY, USA), and 40 ng/mL bFGF (PeproTech EC Ltd., Rocky Hill, NJ, USA) in a humidified incubator at 37 °C with 5% CO2. The floating clusters of cultured cells were centrifuged and dissociated into a single-cell suspension by use of a Pasteur pipette with a flame-polished tip. These single cells were then re-suspended into at a concentration of 50,000 cells/mL for passage or experiments.
as §1
Neurite outgrowth with length exceeding the diameter of the neuronal soma is often assessed as a morphological index of neuronal differentiation. After a single-cell suspension was made by pipetting, the cells were cultured in DMEN/F12 medium alone at 37 °C in a 5% CO2 incubator. Thereafter, neurite outgrowth was evaluated with the following 4 levels: +++, for above 50% of the cells showing neurite outgrowth; ++, for 20–50% with neurite outgrowth; +, for 5–19% having neurite outgrowth; and −, for below 5% of the cells with neurite outgrowth.

In the next experiment the target is T1, elongin BC (Homo sapiens, UniProt Q15369+Q15370).
T1 construct: made in house; host or cells: E. coli BL21 (DE3), pCDFDuet-1
T1 sequence (Q15369 17-112): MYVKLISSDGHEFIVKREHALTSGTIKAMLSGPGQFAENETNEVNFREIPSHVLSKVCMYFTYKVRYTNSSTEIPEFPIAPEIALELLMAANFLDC
T1 sequence (Q15370 whole entry partner): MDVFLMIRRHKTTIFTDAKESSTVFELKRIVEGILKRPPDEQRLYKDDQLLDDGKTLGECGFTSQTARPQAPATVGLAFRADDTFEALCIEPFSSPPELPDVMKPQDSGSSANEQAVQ
Put plainly: Isothermal titration calorimetry (ITC). It counts as binding. (In general: ITC needs no label: the signal is the heat of the interaction.)

In experiment [2] the test system is skin-derived precursors (SKPs). Kind of experiment: Immunocytochemistry with anti-Neurofilament-H (NFH) antibody. Particulars: immunocytochemistry, peptides at 1 to 5 μM; mean ± SEM; vs VHL(157–171): p < 0.01 for VHL(157–168), p < 0.005 for TAT. It counts as cell-based, rat (neonate Wistar). As for the experimental part: as §2, §1
Cultured cells were fixed with 4% paraformaldehyde in PBS (Phosphate buffered saline) for 10 min at room temperature. Cells were incubated for 1 h at room temperature with primary antibodies. Antibodies against anti-MAP2 antibody (Sigma-Aldrich, St. Louis, MO, USA), anti-Neurofilment-H (NFH) antibody (Sigma-Aldrich), anti-NeuN antibody (Merk Millipore, Billerica, MA, USA), anti-GFAP antibody (DAKO, Santa Clara, CA, USA), anti-tyrosine hydroxylase (TH) antibody (Merk Millipore, Billerica, MA, USA), anti-choline acetyl transferase (ChAT) antibody (Abbiotec, San Diego, CA, USA), anti-glutamic acid decaboxylase (GAD) antibody (Enzo Life Sciences, Flamingdale, NY, USA), and anti-rhodopsin antibody (Santa Cruz, San Diego, CA, USA) were used. […] Nuclear counterstaining was done with DAPI (Molecular Probes, Eugene, OR, USA) or TO-PRO-3 (Molecular Probes), and observations were made with a fluorescence microscope system (FV300, Olympus, Tokyo, Japan). We counted the number of immuno-positive cells with a given antibody in 4 to 6 random non-overlapping visual fields (50–200 cells per field) in each experiment. […] The degree of positivity was expressed as the rate of immuno-positive cells to the total number of nuclei stained with DAP1 or TO-PRO-3.

Experiment [3] relates to skin-derived precursors (SKPs). Kind of experiment: Western blot analysis of NFH protein. Particulars: three days after treatment, Figure 3B, peptides at 1 to 5 μM, less than VHL(157–171): VHL(157–168) p < 0.01, TAT p < 0.001. Format: cell-based, rat (neonate Wistar). As for the experimental part:
as §2, §1
Cultured cells were washed 3 times in cold PBS and then scraped into ice-cold PBS. After incubation on ice for 10 min, the cells were lysed with lysis buffer and centrifuged, after which the supernatants were collected. Each sample was separated by SDS-PAGE under reducing conditions and transferred electrophoretically to nitrocellulose filters. Non-specific binding of antibody was blocked by incubation with 5% donkey serum for 1 h. Western blots were probed with anti-MAP2 antibody, anti-NFH antibody, anti-ChAT antibody, anti-GAD antibody, anti-rhodopsin antibody, anti-TH antibody, and anti-elongin C antibody (Santa Cruz, San Diego, CA, USA) followed by horseradish peroxidase-conjugated secondary antibodies. Protein bands were detected by using a chemical luminescence detection system (ECL Plus Western Blotting Reagent Pack, Amersham, Hemel Hempstead, UK). Images were analyzed with LAS-1000 (Fujifilm, Tokyo, Japan), and the density of the bands was determined by using Image Gauge software (Fujifilm).

The test system of the next experiment is rat brain. Put plainly: Immunohistochemistry (NeuN) of transplanted peptide-treated cells in rat brain. It counts as in vivo, rat (Wistar). To be noted: 1 × 10^5 peptide-treated cells transplanted into rat brain, 6 weeks; mean ± SEM; vs VHL(157–171): p < 0.01 for VHL(157–168), p < 0.005 for TAT. As for the experimental part:
To evaluate neuronal differentiation of transplanted cells in rat brains, immunohistochemical study was performed as described previously. Before grafting, cells were preincubated with red fluorescence PKH26PCL (Sigma, St. Louis, MO, USA). […] Rats were anesthetized with isoflurane before surgery, and 1 × 10^5 cells were transplanted into rat brain. The rats were perfused with periodate-lysine-paraformaldehyde solution 6 weeks after the transplantation. Their brains were subsequently dissected and postfixed in the same medium for 2 h, cryopreserved in 30% sucrose for 12 h, and then embedded in Tissue Tek OCT compound (Sakura, Tokyo, Japan). Cryostat coronal sections of 14-μm thickness were prepared for immunohistochemistry. For immunostaining, sections were incubated with primary antibody, anti-NeuN antibody, and then incubated in secondary antibody, FITC-conjugated anti-rabbit IgG. Counterstaining was done with DAPI. In immohistochemistry, observations were made with a confocal immunofluorescence microscope (FV300, Olympus, Tokyo, Japan).
Wistar rats (Clea, Tokyo, Japan) were used in all experiments and housed in a temperature controlled room on a 12-h day/night cycle with free access to food and water. All animal experimental procedures were approved by the Institutional Animal Use Committee of Yokohama City University (ID 153, 1 April 2015) and were in accordance with National Institutes of Health guidelines for care and use of laboratory animals.

Experiment [4] deals with skin-derived precursors (SKPs). Put plainly: Whole-cell patch-clamp electrophysiology. It counts as cell-based, rat (neonate Wistar). To be noted: five days after peptide addition at 3 μM, holding potential −80 mV, steps of 20 mV from −100 to 100 mV, VHL(157–168) vs VHL(157–171) p < 0.01. How it is done:
as §2, §1
To record fast sodium and delayed rectifier potassium currents, we prepared extracellular and intracellular solutions as described previously. […] For recordings and data analysis we used CEZ-2300 (Nihon Kohden, Tokyo, Japan) and pCLAMP 6.0 software (Axon Instruments, Burlingame, CA, USA). Linear components of leak and capacitive currents were reduced by analogue circuitry and then canceled by the P/N method. Signals were sampled every 20 μs, and currents were filtered at 5 kHz. Data were additionally processed with Origin 5.0 (Microcal, Northhampton, MA, USA).
For orientation: Patch clamp records ionic current or voltage across a cell membrane.

In another experiment the test system is JAK2. Put plainly: Western blotting of JAK2 before and after peptide treatment. Format: cell-based, rat. To be noted: Western blot, Figure 5B, p < 0.01.
The test system of the next experiment is STAT3. Put plainly: Western blotting of STAT3 before and after peptide treatment. It counts as cell-based, rat. To be noted: Western blot, Figure 5B, p < 0.01.

Procedure for elongin BC: In order to determine the crucial peptide sequence for elongin BC binding by isothemal titration caloritetry (ITC), recombinant proteins of elongin B and elongin C were prepared as follows. […] For purification, cell pellets were lysed by sonication in buffer A (20 mM Tris-HCl, pH 8.0, 0.5 M NaCl, 10 mM imidazole), and the soluble fraction was loaded onto Ni-NTA resin (Qiagen, Venlo, Netherlands) and eluted with buffer B (20 mM Tris-HCl (pH 8.0), 0.5 M NaCl, 250 mM imidazole). Eluted proteins were then loaded onto a Mono Q column followed by a Superdex 75 10/300 GL column (GE Healthcare, Chicago, IL, USA). For the ITC experiments, the elongin BC solution was exchanged with buffer C (20 mM HEPES-NaOH (pH 8.0), 150 mM NaCl) by using size-exclusion chromatography. Assays to assess the binding of peptides to elongin BC were performed by using a MicroCal iTC200 isothermal titration calorimeter (GE Healthcare, Chicago, IL, USA). […] The concentration of elongin BC was adjusted to a final one of 35 μM and injected into the sample cell (204 μL). One mM peptide was titrated into the protein solution as 40 consecutive 1.0-μL aliquots at 120-s intervals at 25 °C. The first injection volume was 0.4 μL, and the observed thermal peak was excluded from the data analyses. Duplicate experiments were performed independently. […] The KD values were calculated from duplicate thermograms.

In the case of “YARAAARQARATLKERCLQVVRS [FITC-VHL(157–168), FITC-tagged VHL(157–168) peptide]”, the “Binding to elongin C (FITC band after anti-elongin C immunoprecipitation)” value is “a faint band for FITC” in the experiment with elongin C and “significantly less did” with elongin C (listed as FITC-conjugated VHL(157–168)).
Regarding “YARAAARQARAKERCLQVVRS [VHL(159–171), pVHL fragment conjugated with PTD]”, the Neurite Outgrowth Activity entry in [1] is “scarcely did”. In addition, the “Elongin BC binding affinity” value at elongin BC (two residues deleted from the N-terminus, p < 0.0001) is “complete loss of elongin BC binding affinity”.
Consider “YARAAARQARA [TAT, modified TAT protein transduction domain peptide, reference compound]”, for which the Neurite Outgrowth Activity result in experiment [1] is listed as “scarcely did”. Further, the Morphological change result in experiment [1] (phase-contrast microscopy, Figure 1E) was “no morphological change”. The “Percentage of NFH-positive cells” value in [2] amounted to 6.9 ± 1.5%. For the same sequence, the “NFH protein amount / band” value in experiment [3] is “a faint band”. Moreover, the “Positive rates of NeuN” value with rat brain is on record as 3.2 ± 0.8%. Moreover, the “Voltage-gated outward K+ and inward Na+ currents” value in experiment [4] was “no current was elicited”. Moreover, the JAK2 degradation entry with JAK2 was “Bands for JAK2 and STAT3 were found for pre-treated cells or TAT-treated cells more than post-treated cells”. Further, the STAT3 degradation result in the experiment with STAT3 was “Bands for JAK2 and STAT3 were found for pre-treated cells or TAT-treated cells more than post-treated cells”.
Consider “YARAAARQARATLKERCLQVVRS [VHL(157–168), BC-box motif plus two amino acids, conjugated with PTD]”, for which the Neurite Outgrowth Activity entry in experiment [1] is reported as “significantly weaker neurite outgrowth activity than VHL(157–171)”. For the same sequence, in experiment [2], the “Percentage of NFH-positive cells” value is reported as 10.1 ± 2.2%. Also, the “NFH protein amount / band” value in [3] is given as “a less distinct band for NFH”. Moreover, in the experiment on rat brain, the “Positive rates of NeuN” value stood at 9.2 ± 1.8%. Further, the “Voltage-gated outward K+ and inward Na+ currents” value in experiment [4] was “both significantly smaller outward potassium and inward Na^+ currents”.
Regarding “TLKERCLQVVRS [VHL157–168, VHL peptide without TAT, for ITC, synthesized by CS Bio Co]”, the ΔS on elongin BC (25 °C, 20 mM HEPES-NaOH (pH 8.0), 150 mM NaCl, mean ± S.D. of two independent replicates) is −8.54 ± 0.74 cal/mol/deg.
In the case of “YARAAARQARATLKERCLQVVRSLVK [FITC-VHL(157–171), FITC-tagged VHL(157–171) peptide]”, the “Binding to elongin C (FITC band after anti-elongin C immunoprecipitation)” value in the experiment on elongin C is “A distinct band for FITC”; in the experiment on elongin C (listed as FITC-conjugated VHL(157–171)) it was “distinctly bound to elongin C”.

The values are drawn from article PMC5855688, “BC-Box Motif-Mediated Neuronal Differentiation of Somatic Stem Cells” (International Journal of Molecular Sciences, 2018).
